Results reported in ChEMBL document CHEMBL4837239, “Identification of Thieno[3,2-d]pyrimidine Derivatives as Dual Inhibitors of Focal Adhesion Kinase and FMS-like Tyrosine Kinase 3” (J Med Chem, 2021).
Activity calls are given as the source filed them. The rule behind the calls is not given here.

Assays:
MDA-MB-231 [1] = test: Antimetastatic activity against human MDA-MB-231 cells expressing firefly luciferase xenografted NSG orthotopic mouse model assessed as reduction in tumor weight at 70 mg/kg, po once daily measured for 2 weeks; assay type: functional, organism-based
[2] = biological target: Proto-oncogene tyrosine-protein kinase Src (Homo sapiens, UniProt P12931); test: Inhibition of Src (unknown origin) at 0.1 uM
HCT-116 = test: Growth inhibition of anchorage-Independent human HCT-116 cells assessed as decrease in number of colonies at 1 uM incubated for 72 hrs by MTT assay relative to control; assay type: functional, cell-based
MDA-MB-231 [3] = test: Antimetastatic activity against human MDA-MB-231 cells expressing firefly luciferase xenografted NSG orthotopic mouse model assessed as reduction in luminescence intensity at liver at 70 mg/kg, po once daily measured for 2 weeks; assay type: functional, organism-based
MV4-11 = test: In vivo antitumor activity against human MV4-11 cells xenografted in mouse assessed as tumor weight at 50 mg/kg, po relative to control; assay type: functional, organism-based
[4] = test system: T1, Receptor-type tyrosine-protein kinase FLT3 (Homo sapiens), P36888 [D835Y]; test: Inhibition of FLT3-D835Y mutant (unknown origin) expressed in mouse BaF3 cells assessed as decrease in ERK phosphorylation at 1 nM by Western blot analysis; assay type: cell-based
T1 sequence (whole entry): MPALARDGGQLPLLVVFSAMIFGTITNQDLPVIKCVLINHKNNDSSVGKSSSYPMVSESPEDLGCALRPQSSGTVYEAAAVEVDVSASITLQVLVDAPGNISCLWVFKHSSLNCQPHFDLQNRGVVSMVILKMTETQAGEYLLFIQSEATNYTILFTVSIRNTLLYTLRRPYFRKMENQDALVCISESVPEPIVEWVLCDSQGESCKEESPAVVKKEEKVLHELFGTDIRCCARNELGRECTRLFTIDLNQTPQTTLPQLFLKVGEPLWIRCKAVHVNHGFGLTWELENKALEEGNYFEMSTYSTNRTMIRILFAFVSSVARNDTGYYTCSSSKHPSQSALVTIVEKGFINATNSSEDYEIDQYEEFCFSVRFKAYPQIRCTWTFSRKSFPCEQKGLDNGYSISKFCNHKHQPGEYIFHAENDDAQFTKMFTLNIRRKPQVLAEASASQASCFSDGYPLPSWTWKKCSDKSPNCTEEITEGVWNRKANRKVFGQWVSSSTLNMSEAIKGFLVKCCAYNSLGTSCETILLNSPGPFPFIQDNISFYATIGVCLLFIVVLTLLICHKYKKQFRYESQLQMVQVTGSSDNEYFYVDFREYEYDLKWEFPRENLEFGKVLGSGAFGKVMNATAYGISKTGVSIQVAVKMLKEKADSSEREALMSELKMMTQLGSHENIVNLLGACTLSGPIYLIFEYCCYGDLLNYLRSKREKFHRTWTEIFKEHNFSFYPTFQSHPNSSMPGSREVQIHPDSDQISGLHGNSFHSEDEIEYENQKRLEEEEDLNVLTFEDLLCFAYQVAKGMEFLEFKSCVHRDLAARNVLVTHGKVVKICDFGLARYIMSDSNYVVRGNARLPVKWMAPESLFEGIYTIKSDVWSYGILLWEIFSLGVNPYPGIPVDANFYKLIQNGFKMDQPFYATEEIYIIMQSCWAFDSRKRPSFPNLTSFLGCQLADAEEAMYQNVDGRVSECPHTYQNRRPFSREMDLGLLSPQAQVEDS

MDA-MB-231 [5] = test: Antimetastatic activity against human MDA-MB-231 cells expressing firefly luciferase xenografted NSG orthotopic mouse model assessed as suppression of lymphogenous metastasis at 70 mg/kg, po once daily measured for 2 weeks; assay type: functional, organism-based
MDA-MB-231 [6] = test: Antimetastatic activity against human MDA-MB-231 cells expressing firefly luciferase xenografted NSG orthotopic mouse model assessed as reduction in luminescence intensity at chest region at 70 mg/kg, po once daily measured for 2 weeks; assay type: functional, organism-based
CYP2D6 = CYP2D6 (Homo sapiens, UniProt P10635); test: Inhibition of CYP2D6 (unknown origin) at 10 uM relative to control; assay type: ADME
Focal adhesion kinase 1 [7] = biological target: T2, Focal adhesion kinase 1 (Homo sapiens, UniProt Q05397); test: Inhibition of FAK (unknown origin) at 0.1 uM
Focal adhesion kinase 1 [8] = biological target: T2, Focal adhesion kinase 1; test: Inhibition of FAK autophosphorylation at Y397 in human HCT-116 cells at 5 uM incubated for 24 hrs by Western blot analysis; assay type: cell-based
Colon carcinoma cell = test: Antiproliferative activity against human colon cancer cells assessed as growth inhibition measured after 72 hrs by MTT assay; assay type: functional, cell-based
BaF3 [9] = test: Inhibition of FLT3-ITD/[…] mutant (unknown origin) expressed in mouse Ba/F3 cells assessed as decrease in autophosphorylation at 10 nM by Western blot analysis; assay type: cell-based; conditions: Homo sapiens
Homo sapiens = species: Homo sapiens; test: Inhibition of FLT3 D835Y mutant (unknown origin) at 0.1 uM
CYP2C9 = CYP2C9 (Homo sapiens, UniProt P11712); test: Inhibition of CYP2C9 (unknown origin) at 10 uM relative to control; assay type: ADME
Focal adhesion kinase 1 [10] = biological target: T2, Focal adhesion kinase 1; test: Inhibition of FAK autophosphorylation at Y925 in human HCT-116 cells at 5 uM incubated for 24 hrs by Western blot analysis; assay type: cell-based
[11] = biological target: Mitogen-activated protein kinase; ERK1/ERK2 (Homo sapiens) (UniProt P27361+P28482); test: Inhibition of ERK1/2 autophosphorylation in human HCT-116 cells at 0.5 to 5 uM incubated for 24 hrs by Western blot analysis; assay type: cell-based; conditions: dose 0.5-5 µM
CYP3A4 = CYP3A4 (Homo sapiens, UniProt P08684); test: Inhibition of CYP3A4 (unknown origin) at 10 uM relative to control; assay type: ADME
[12] = biological target: Cyclin-dependent kinase 4 (Homo sapiens, UniProt P11802); test: Inhibition of CDK4 (unknown origin) at 0.1 uM
BaF3 [13] = test: Inhibition of FLT3-ITD/[…] mutant (unknown origin) expressed in mouse BaF3 cells assessed as decrease in autophosphorylation at 1 nM by Western blot analysis; assay type: cell-based; conditions: Homo sapiens
BaF3 [14] = test: Antiproliferative activity against mouse Ba/F3 cells harbouring FLT3 D835Y mutant assessed as growth inhibition measured after 72 hrs by CellTiter-Glo assay; assay type: functional; conditions: Mus musculus, BaF3
[15] = Metabolic stability in human liver microsomes assessed as compound remaining at 1 uM measured after 1 hr; assay type: ADME, Microsome; conditions: read-out: Stabilty
BaF3 [16] = test: Antiproliferative activity against mouse Ba/F3 cells harbouring FLT3 ITD D835Y mutant assessed as growth inhibition measured after 72 hrs by CellTiter-Glo assay; assay type: functional; conditions: Mus musculus, BaF3
MDA-MB-231 [17] = test: Induction of apoptosis in human MDA-MB-231 cells assessed apoptotic cell death at 10 uM incubated for 24 hrs by Annexin-V/PI analysis; assay type: functional, cell-based
Focal adhesion kinase 1 [18] = biological target: T2, Focal adhesion kinase 1; test: Inhibition of FAK autophosphorylation at Y576 in human HCT-116 cells at 5 uM incubated for 24 hrs by Western blot analysis; assay type: cell-based
[19] = biological target: Casein kinase II subunit alpha (Homo sapiens, UniProt P68400); test: Inhibition of CK2alpha1 (unknown origin)
MDA-MB-231 [20] = test: Induction of apoptosis in human MDA-MB-231 cells assessed as cleaved PARP at 0.1 to 10 uM incubated for 24 hrs by Western blot analysis; assay type: functional, cell-based; conditions: dose 0.1-10 µM

T2 sequence (Q05397 2-1052 limits assumed): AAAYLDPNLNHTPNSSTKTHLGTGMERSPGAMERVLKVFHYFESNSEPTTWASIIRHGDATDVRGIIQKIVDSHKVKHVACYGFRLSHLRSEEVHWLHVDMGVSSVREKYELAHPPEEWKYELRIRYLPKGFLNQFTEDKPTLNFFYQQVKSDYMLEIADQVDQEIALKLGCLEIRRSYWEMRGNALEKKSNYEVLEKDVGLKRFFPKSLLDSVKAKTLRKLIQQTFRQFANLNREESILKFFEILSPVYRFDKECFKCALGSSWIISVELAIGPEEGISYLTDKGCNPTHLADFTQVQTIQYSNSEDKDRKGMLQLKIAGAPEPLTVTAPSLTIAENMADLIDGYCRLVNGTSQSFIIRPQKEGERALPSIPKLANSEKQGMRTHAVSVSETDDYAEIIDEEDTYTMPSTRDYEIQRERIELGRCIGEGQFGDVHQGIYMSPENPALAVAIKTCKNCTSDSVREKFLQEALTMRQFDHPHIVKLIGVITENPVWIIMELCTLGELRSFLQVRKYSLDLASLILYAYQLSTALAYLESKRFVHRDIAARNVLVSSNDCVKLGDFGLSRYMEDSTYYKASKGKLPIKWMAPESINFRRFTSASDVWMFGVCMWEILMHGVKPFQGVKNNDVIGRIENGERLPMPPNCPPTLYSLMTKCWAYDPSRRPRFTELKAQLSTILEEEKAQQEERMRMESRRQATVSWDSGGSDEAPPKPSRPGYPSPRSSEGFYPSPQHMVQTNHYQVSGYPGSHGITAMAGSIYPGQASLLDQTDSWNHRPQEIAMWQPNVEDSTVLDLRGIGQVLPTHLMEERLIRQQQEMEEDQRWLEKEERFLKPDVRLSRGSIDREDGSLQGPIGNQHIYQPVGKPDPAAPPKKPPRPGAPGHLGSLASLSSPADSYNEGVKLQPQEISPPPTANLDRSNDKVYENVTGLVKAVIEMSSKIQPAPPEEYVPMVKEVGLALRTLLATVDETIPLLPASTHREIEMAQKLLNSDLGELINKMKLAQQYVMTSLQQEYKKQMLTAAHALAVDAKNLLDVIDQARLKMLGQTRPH
Sequence of CYP3A4 (P08684 whole entry): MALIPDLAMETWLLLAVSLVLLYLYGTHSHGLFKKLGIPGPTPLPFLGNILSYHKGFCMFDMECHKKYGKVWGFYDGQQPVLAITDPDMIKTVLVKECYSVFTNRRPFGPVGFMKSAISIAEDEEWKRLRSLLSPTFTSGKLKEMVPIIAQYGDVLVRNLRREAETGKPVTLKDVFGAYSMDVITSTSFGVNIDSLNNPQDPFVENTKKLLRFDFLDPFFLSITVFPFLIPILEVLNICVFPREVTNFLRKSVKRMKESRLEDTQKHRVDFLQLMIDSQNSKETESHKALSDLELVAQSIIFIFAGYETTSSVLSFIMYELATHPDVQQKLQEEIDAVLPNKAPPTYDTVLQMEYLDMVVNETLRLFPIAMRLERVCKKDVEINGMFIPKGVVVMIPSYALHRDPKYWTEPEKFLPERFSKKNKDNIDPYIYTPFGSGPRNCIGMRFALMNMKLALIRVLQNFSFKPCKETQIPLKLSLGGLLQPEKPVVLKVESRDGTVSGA
Sequence of Casein kinase II subunit alpha (P68400 whole entry): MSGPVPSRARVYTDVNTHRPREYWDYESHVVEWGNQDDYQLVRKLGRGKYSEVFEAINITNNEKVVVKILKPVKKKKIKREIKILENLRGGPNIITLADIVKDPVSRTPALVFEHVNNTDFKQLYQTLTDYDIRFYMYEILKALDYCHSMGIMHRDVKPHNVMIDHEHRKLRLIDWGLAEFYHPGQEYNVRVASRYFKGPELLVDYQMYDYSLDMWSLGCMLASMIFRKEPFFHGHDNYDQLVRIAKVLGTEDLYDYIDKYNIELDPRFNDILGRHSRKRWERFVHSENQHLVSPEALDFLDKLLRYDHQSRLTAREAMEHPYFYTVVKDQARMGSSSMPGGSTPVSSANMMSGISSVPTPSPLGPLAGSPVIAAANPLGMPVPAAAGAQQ
Sequence of Cyclin-dependent kinase 4 (P11802 whole entry): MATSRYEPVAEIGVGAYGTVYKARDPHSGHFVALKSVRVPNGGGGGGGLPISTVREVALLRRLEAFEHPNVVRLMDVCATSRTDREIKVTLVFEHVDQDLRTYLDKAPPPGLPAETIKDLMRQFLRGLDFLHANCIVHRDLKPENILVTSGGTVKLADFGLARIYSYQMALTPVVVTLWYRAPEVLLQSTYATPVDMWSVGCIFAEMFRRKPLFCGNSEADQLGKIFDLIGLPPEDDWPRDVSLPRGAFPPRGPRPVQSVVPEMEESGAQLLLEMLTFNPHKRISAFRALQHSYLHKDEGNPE
Sequence of Mitogen-activated protein kinase; ERK1/ERK2 (Homo sapiens) (P27361 whole entry, looked up): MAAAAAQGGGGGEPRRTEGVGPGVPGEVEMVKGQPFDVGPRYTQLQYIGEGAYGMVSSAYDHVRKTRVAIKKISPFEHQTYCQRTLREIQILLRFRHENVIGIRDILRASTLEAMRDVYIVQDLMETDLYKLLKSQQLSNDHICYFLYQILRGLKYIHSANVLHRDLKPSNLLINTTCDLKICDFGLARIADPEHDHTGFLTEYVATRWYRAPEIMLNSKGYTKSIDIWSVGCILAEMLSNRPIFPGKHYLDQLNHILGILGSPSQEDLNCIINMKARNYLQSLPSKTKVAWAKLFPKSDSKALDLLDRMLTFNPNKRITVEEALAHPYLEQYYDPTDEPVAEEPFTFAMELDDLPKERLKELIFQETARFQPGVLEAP
Sequence of Mitogen-activated protein kinase; ERK1/ERK2 (Homo sapiens) (P28482 whole entry, looked up): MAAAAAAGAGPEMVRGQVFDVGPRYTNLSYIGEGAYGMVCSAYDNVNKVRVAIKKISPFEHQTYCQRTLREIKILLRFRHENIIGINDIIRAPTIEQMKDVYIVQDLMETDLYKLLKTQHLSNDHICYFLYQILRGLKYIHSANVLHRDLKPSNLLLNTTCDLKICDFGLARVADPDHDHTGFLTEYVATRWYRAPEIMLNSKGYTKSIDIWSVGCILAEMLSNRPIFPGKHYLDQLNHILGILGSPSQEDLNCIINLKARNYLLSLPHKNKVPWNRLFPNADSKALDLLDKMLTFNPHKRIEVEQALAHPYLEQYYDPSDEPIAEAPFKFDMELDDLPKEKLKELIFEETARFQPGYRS
Sequence of Proto-oncogene tyrosine-protein kinase Src (P12931 2-536 limits assumed): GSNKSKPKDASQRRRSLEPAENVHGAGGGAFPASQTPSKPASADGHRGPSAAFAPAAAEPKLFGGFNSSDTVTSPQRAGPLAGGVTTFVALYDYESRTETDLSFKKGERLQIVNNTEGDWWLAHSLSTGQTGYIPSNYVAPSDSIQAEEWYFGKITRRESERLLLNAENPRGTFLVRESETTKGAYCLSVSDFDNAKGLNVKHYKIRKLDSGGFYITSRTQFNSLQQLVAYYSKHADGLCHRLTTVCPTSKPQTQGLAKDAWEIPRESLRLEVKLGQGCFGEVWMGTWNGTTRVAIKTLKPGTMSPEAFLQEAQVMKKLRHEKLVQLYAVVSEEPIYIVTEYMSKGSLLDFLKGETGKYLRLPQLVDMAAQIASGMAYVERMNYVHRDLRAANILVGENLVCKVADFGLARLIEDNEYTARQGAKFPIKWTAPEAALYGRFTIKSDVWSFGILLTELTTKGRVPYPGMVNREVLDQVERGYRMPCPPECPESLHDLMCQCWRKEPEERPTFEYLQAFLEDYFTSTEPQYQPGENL
Sequence of CYP2D6 (P10635 whole entry): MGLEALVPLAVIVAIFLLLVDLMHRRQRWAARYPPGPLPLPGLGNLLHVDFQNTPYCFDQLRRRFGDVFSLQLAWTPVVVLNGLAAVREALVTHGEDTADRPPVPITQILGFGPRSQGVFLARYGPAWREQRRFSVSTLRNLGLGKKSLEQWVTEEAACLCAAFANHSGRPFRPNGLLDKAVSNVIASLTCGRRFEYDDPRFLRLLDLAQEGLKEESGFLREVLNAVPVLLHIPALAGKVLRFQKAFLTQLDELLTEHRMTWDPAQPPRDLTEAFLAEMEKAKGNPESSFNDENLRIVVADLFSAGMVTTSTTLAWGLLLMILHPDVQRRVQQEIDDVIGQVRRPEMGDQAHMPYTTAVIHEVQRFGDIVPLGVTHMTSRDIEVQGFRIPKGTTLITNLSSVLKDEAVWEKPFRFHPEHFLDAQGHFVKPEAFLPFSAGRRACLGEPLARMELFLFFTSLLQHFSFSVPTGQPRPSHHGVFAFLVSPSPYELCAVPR
Sequence of CYP2C9 (P11712 whole entry): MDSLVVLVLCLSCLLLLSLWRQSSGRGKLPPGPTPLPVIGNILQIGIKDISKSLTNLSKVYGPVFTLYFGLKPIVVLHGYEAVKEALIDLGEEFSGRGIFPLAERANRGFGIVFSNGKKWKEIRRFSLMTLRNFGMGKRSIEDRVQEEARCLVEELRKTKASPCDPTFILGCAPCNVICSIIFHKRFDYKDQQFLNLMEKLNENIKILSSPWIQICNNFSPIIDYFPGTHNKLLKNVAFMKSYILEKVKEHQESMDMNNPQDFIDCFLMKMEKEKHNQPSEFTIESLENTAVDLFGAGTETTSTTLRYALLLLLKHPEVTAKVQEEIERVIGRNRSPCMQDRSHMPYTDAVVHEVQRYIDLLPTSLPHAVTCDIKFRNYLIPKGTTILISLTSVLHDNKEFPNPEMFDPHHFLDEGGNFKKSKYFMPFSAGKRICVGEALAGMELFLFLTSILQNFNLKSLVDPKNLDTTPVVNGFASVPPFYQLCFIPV

inhibition [2]: 93.1% | inhibition [4]: Active | inhibition at 10 µM (CYP2D6): 100% | inhibition (Focal adhesion kinase 1 [7]): 95.6% | inhibition (Focal adhesion kinase 1 [8]): Active | inhibition (Homo sapiens): 98.4% | inhibition at 10 µM (CYP2C9): 93.6% | inhibition (Focal adhesion kinase 1 [10]): Active | inhibition [11]: inactive | inhibition at 10 µM (CYP3A4): 71.9% | inhibition [12]: 92.7% | GI50 (BaF3 [14]): 0.4 nM | remaining at 1 h, 1 µM [15]: 80.2% | GI50 (BaF3 [16]): 5.7 nM | inhibition (Focal adhesion kinase 1 [18]): Active | IC50 [19]: 13.9 nM
SMILES: CCN1CCN(c2ccc(Nc3ncc4scc(-c5cccc(NS(C)(=O)=O)c5)c4n3)cc2)CC1
Activity (MDA-MB-231 [1]): Active | growth inhibition (GI) (HCT-116): Active | Activity (MDA-MB-231 [3]): Active | Activity (MV4-11): Active | Activity (MDA-MB-231 [5]): Active | Activity (MDA-MB-231 [6]): Active | Activity (Colon carcinoma cell): Active | inhibition (BaF3 [9]): 100% | inhibition (BaF3 [13]): Active | Activity (MDA-MB-231 [17]): Active | Activity (MDA-MB-231 [20]): Active
